Patent US11857560B2, “Pharmaceutical compositions comprising substituted nucleotides and nucleosides for treating viral infections” (priority 2013, dated 2024)

What was measured:
HCMV = HCMV replication assay; format: cell-based; details: Human betaherpesvirus 5
[1] = Cytotoxicity in Huh-7 cells (HSV-1 assay); format: cell-based; details: human, beside HSV-1
[2] = Cytotoxicity in PBM cells (HIV assay); format: cell-based; details: human, peripheral blood mononuclear cells (PBMCs), PHA-P stimulated; beside HIV
[3] = Toxicity in Huh-7 cells (Dengue assay); details: human, Huh-7 cells
HBV = HBV replication assay; format: cell-based; details: Hepatitis B virus
Protocol: Ten microliters of cell culture supernatant collected on the sixth day was diluted in qPCR dilution buffer (40 μg/mL sheared salmon sperm DNA) and boiled for 15 minutes. Quantitative real time PCR was performed in […] using an Applied Biosystems 7900HT Sequence Detection System and the supporting SDS 2.4 software. Five microliters (5 μL) of boiled DNA for each sample and serial 10-fold dilutions of a quantitative DNA standard were subjected to real time Q-PCR using Platinum Quantitative PCR SuperMix-UDG (Invitrogen) and specific DNA oligonucleotide primers (IDT, Coralville, […]) HBV-AD38-qFI (5′-[…] -3′) (SEQ ID NO: 1), HBV-AD38-qR1 (5′-AGT CCA AGA GTY CTC TTA TRY AAG ACC TT-3′) (SEQ ID NO: 2), and HBV-AD38-qPI (5′-FAM CCG TGT GCA/ZEN/[…] -3′BHQ1) (SEQ ID NO: 3) at a final concentration of 0.2 μM for each primer in a total reaction volume of 15 μL. The HBV DNA copy number in each sample was interpolated from the standard curve by the SDS.24 software and the data were imported into an Excel spreadsheet for analysis.

HIV = HIV infected PBMC assay; format: cell-based, HIV-1; details: Human immunodeficiency virus 1, PBMC
Protocol: Fresh human peripheral blood mononuclear cells (PBMCs) were obtained from a commercial source (Biological Specialty) and were determined to be seronegative for HIV and HBV. Depending on the volume of donor blood received, the leukophoresed blood cells were washed several times with PBS. After washing, the leukophoresed blood was diluted 1:1 with Dulbecco's phosphate buffered saline (PBS) and layered over 15 mL of Ficoll-Hypaque density gradient in a 50 ml conical centrifuge tube. These tubes were centrifuged for 30 min at 600 g. Banded PBMCs were gently aspirated from the resulting interface and washed three times with PBS. […] After incubation, PBMCs were centrifuged and resuspended in tissue culture medium. The cultures were maintained until use by half-volume culture changes with fresh IL-2 containing tissue culture medium every 3 days. […]
Following addition of test compound to the wells, 50 uL of a predetermined dilution of HIV virus (prepared from 4× of final desired in-well concentration) was added, and mixed well. […] After 7 days in culture, HIV-1 replication was quantified in the tissue culture supernatant by measurement of reverse transcriptase (RT) activity. […]
Reverse Transcriptase Activity Assay—Reverse transcriptase activity was measured in cell-free supernatants using a standard radioactive incorporation polymerization assay. […]

VZV = VZV replication assay; format: cell-based; details: Human alphaherpesvirus 3
Adenovirus = Adenovirus replication assay; format: cell-based; details: unidentified adenovirus
[4] = Cytotoxicity in MRC-5 cells (VZV assay); format: cell-based; details: human, beside VZV
[5] = Cytotoxicity in MRC-5 cells (HCMV assay); format: cell-based; details: human, beside HCMV
[6] = Cytotoxicity in HepG2 cells (HBV assay); format: cell-based; details: human, HepG2.2.15 cells; beside HBV
Protocol: The 50% cytotoxic concentration for the test materials are derived by measuring the reduction of the tetrazolium dye XTT in the treated tissue culture plates. XTT is metabolized by the mitochondrial enzyme […] to a soluble formazan product in metabolically active cells. […] The 2-4 hour incubation has been empirically determined to be within linear response range for XTT dye reduction with the indicated numbers of cells for each assay. […] Data were collected by Softmax 4.6 software and imported into an Excel spreadsheet for analysis.

Huh-7 = test: Cytotoxicity panel, Huh-7; details: read-out: Cytotoxicity (CC50 uM) Huh-7; Huh-7
HSV-1 = HSV-1 replication assay; format: cell-based; details: Human alphaherpesvirus 1
[7] = Cytotoxicity panel, HepG2; details: human, HepG2 cells
Cytotoxicity panel, CEM = details: human, CEM cells, Cytotoxicity (CC50 uM) CEM
[8] = test system: HCV replicon 3a (GT1b/3a NS5B chimera); test: microbe, parasite or virus in culture; format: cell-based; details: Hepatitis C virus, read-out: EC50 (μM) 3a (GT1b/3a NS5B chimera)
[9] = test system: HCV replicon 2b (GT1b/2b NS5B chimera); test: microbe, parasite or virus in culture; format: cell-based; details: Hepatitis C virus, read-out: EC50 (μM) 2b (GT1b/2b NS5B chimera)
[10] = test system: HCV replicon 4a (GT1b/4a NS5B chimera); test: microbe, parasite or virus in culture; format: cell-based; details: Hepatitis C virus, read-out: EC50 (μM) 4a (GT1b/4a NS5B chimera)
[11] = Cytotoxicity panel, Huh-7; details: human, Huh-7 cells, Cytotoxicity (CC50 uM) Huh-7, Huh-7
Huh-7 cells = test: Toxicity in Huh-7 cells (Dengue assay); details: read-out: CC50 uM; Cell Line Huh-7, pan-serotype Dengue table
Dengue Type 2 [12] = test: Anti-Dengue virus cytoprotection assay, Huh-7 cells; details: Huh-7, read-out: Dengue Type 2 Huh-7 Cells (EC50 uM)
HepG2 = test: Cytotoxicity panel, HepG2; details: read-out: Cytotoxicity (CC50 uM) HepG2; HepG2
Dengue Type 2 [13] = test: Anti-Dengue virus cytoprotection assay, Vero cells; details: read-out: Dengue Type 2 Vero Cells (EC50 uM)
[14] = Toxicity in Vero cells (Dengue assay); details: African green monkey

CC(C)OC(=O)[C@H](C)NP(=O)(OC[C@H]1O[C@@H](n2ccc(=O)[nH]c2=S)[C@](C)(O)C1O)Oc1ccccc1 (stereo partly shown) [ENUC-01911]
EC50 (HCMV): > 100 µM
CC50 [1]: > 100 µM
CC50 at 7 days [2]: > 100 µM
CC50 [3]: > 100 µM
EC50 (HBV): > 100 µM
EC50 (HIV): > 100 µM
EC50 (VZV): > 100 µM
EC50 (Adenovirus): > 100 µM
CC50 [4]: > 100 µM
CC50 [5]: > 100 µM
CC50 at 6 days [6]: > 100 µM
CC50 (Huh-7): > 400 µM
EC50 (HSV-1): > 100 µM

CC(C)OC(=O)[C@H](C)N[P@](=O)(OC[C@H]1O[C@@H](n2ccc(=O)[nH]c2=S)[C@](C)(O)C1O)Oc1ccccc1 (stereo partly shown) [ENUC-02023-1]
CC50 [7]: > 400 µM
CC50 (Cytotoxicity panel, CEM): > 400 µM
EC50 [8]: 0.0367 µM
EC50 [9]: 0.0445 µM
EC50 [10]: 0.0254 µM
CC50 [11]: 252 µM

CC(C)OC(=O)[C@H](C)N[P@](=O)(OC[C@H]1O[C@@H](n2ccc(=O)[nH]c2=S)[C@](C)(O)C1O)Oc1ccccc1 (stereo partly shown) [ENUC-02023]
CC50 [3]: > 100 µM
CC50 (Huh-7 cells): > 100 µM
EC50 (Dengue Type 2 [12]): 5.62 µM
CC50 (HepG2): > 400 µM
EC50 (Dengue Type 2 [13]): 2.35 µM
CC50 [14]: > 100 µM
